In the NIST ThermoML archive (doi:10.1016/j.jct.2018.12.019):

Legend:
[1] = xn = mol fraction of the nth substance listed; settings: 98 kPa, Liquid, x2 = 0; for speed of sound: Frequency=3 MHz, Single path-length method; for mass density: Vibrating tube method
[2] = 98 kPa, Liquid; for speed of sound: Frequency=3 MHz, Single path-length method; for mass density: Vibrating tube method
[3] = excess molar enthalpy (molar enthalpy of mixing); xn = mol fraction of the nth substance listed; settings: 298.15 K; 98 kPa; Liquid; Calvet calorimetry; x2 = 0

O [water] + Cn1ccnc1
[1], 328.15 K
Settings | mass density [kg/m3] | speed of sound [m/s]
– | 985.71 | 1547.3

CO [methanol] + Cn1ccnc1
[1]
Settings | mass density [kg/m3] | speed of sound [m/s]
288.15 K | 796.13 | 1135.7
298.15 K | 786.75 | 1102.6
308.15 K | 777.29 | 1069.8
318.15 K | 767.71 | 1037.4
328.15 K | 757.97 | 1005.3

CC(C)O [propan-2-ol]
[2]
Settings | mass density [kg/m3] | speed of sound [m/s]
288.15 K | 789.18 | 1173.2
298.15 K | 780.86 | 1138.4
308.15 K | 772.26 | 1103.3
318.15 K | 763.3 | 1067.9
328.15 K | 753.91 | 1031.9

CCCO [propan-1-ol]
[2]
Settings | mass density [kg/m3] | speed of sound [m/s]
288.15 K | 807.5 | 1239.5
298.15 K | 799.53 | 1205.2
308.15 K | 791.44 | 1171.1
318.15 K | 783.18 | 1137.3
328.15 K | 774.7 | 1103.8

Cn1ccnc1 [1-methylimidazole]
[2]
Settings | mass density [kg/m3] | speed of sound [m/s]
288.15 K | 1039.36 | 1634.1
298.15 K | 1030.52 | 1596.5
308.15 K | 1021.66 | 1559
318.15 K | 1012.76 | 1521.8
328.15 K | 1003.83 | 1485

CCCO [propan-1-ol] + Cn1ccnc1
[1]
Settings | mass density [kg/m3] | speed of sound [m/s]
288.15 K | 807.5 | 1239.5
298.15 K | 799.53 | 1205.2
308.15 K | 791.44 | 1171.1
318.15 K | 783.18 | 1137.3
328.15 K | 774.7 | 1103.8

Settings | excess molar enthalpy [kcal/mol]
[3] | 0

CC(C)O [propan-2-ol] + Cn1ccnc1
[1]
Settings | mass density [kg/m3] | speed of sound [m/s]
288.15 K | 789.18 | 1173.2
298.15 K | 780.86 | 1138.4
308.15 K | 772.26 | 1103.3
318.15 K | 763.3 | 1067.9
328.15 K | 753.91 | 1031.9

Settings | excess molar enthalpy [kcal/mol]
[3] | 0

CO [methanol]
[2]
Settings | mass density [kg/m3] | speed of sound [m/s]
288.15 K | 796.13 | 1135.7
298.15 K | 786.75 | 1102.6
308.15 K | 777.29 | 1069.8
318.15 K | 767.71 | 1037.4
328.15 K | 757.97 | 1005.3

CCO [ethanol] + Cn1ccnc1
[1]
Settings | mass density [kg/m3] | speed of sound [m/s]
288.15 K | 793.68 | 1176.9
298.15 K | 785.14 | 1142.7
308.15 K | 776.48 | 1108.8
318.15 K | 767.68 | 1075.2
328.15 K | 758.65 | 1041.9

Settings | excess molar enthalpy [kcal/mol]
[3] | 0

CCO [ethanol]
[2]
Settings | mass density [kg/m3] | speed of sound [m/s]
288.15 K | 793.68 | 1176.9
298.15 K | 785.14 | 1142.7
308.15 K | 776.48 | 1108.8
318.15 K | 767.68 | 1075.2
328.15 K | 758.65 | 1041.9
